The values below come from ChEMBL document CHEMBL1201862, “PubChem BioAssay data set” (2004).

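Interpolation was linear, between the two tested concentrations surrounding the appropriate level; five concentrations were tested over 48 hours in 96-well plates. Here, GI50 denotes the concentration required for 50% inhibition of growth.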 Activity calls are given as the source filed them. Rule as the data show it: active = GI50 up to about 1.1 µM and inactive = higher.

Common to all, as to test: NCI-60 cell line screen, 48 h
The subject of experiment [1] is K562.
The test system of experiment [2] is MDA-MB-231.
The subject of experiment [3] is SN12C.
Experiment [4] concerns NCI-H226.
Experiment [5] has as its system LOX IMVI.
Experiment [6] has as its system M14.
Experiment [7] deals with TK-10.
The test system of experiment [8] is SK-MEL-5.
Experiment [9] concerns DU-145.
In experiment [10] the test system is CCRF-CEM.
Experiment [11] relates to CAKI-1.
Experiment [12] has as its system SK-MEL-2.
Experiment [13] deals with RXF 393.
For experiment [14], the system named is SR.
Experiment [15] relates to SF-295.
In experiment [16] the test system is HCT-15.
For experiment [17], the system named is HOP-62.
Experiment [18] concerns SF-268.
The subject of experiment [19] is A498.
Experiment [20] deals with SK-OV-3.

On to `COC(=O)/C(C#N)=C/c1cc(C(C)(C)C)c(O)c(C(C)(C)C)c1`, for which the GI50 in experiment [1] is 2.59 µM (inactive); in [2], 1.63 µM (inactive); in experiment [3], 1.48 µM (inactive); in [4] it was 1.96 µM (inactive); in experiment [5] it was 3.95 µM (inactive); in experiment [6], 3.12 µM (inactive). For the same molecule, the GI50 in experiment [7] is 3.24 µM (inactive); in experiment [8] it was 1.18 µM (inactive); in experiment [9], 4.58 µM (inactive); in [10] it was 1.9 µM (inactive); in experiment [11], 2.89 µM (inactive); in [12], 1.73 µM (inactive). Further, the GI50 in experiment [13] was 3.41 µM (inactive); in experiment [14], 0.904 µM (active); in experiment [15], 1.74 µM (inactive); in experiment [16] it was 2.67 µM; in experiment [17], 3.15 µM (inactive); in experiment [18], 3.27 µM (inactive). In addition, the GI50 was 1.77 µM (inactive) in experiment [19] and 2.48 µM (inactive) in experiment [20].
